Values quoted from earlier work as cited in patent US20070082064A1, “Nutritional or dietary supplement for the treatment of macular degeneration” (priority 2005, published 2007).

In the case of vitamin E, the risk of death (daily dose of 200 IU per day) is listed as “no increased risk of death” and the “risk of death higher than among those taking placebos” value (daily doses of 400 IU or more, meta-analysis of 19 trials, more than 136,000 patients) is listed as “about 10%”.
